Results on 1 molecule are retold here after patent publication US20170202932A1, “METHODS FOR INHIBITING NEURON APOPTOSIS AND NECROSIS” (NEWSOUTH INNOVATIONS PTY LIMITED, priority 2012, published 2017).

For assay [1], the system named is mouse cerebellar brain slices. Put plainly: Oxygen glucose deprivation (OGD) in organotypic cerebellar brain slices, propidium iodide staining. Type of assay: cell-based. The note with it: genistein 200 μM. How it is done: TRPC3c-mediated brain injury arising from transient oxygen glucose deprivation (OGD) was evaluated in organotypic cerebellar brain slices using the TRPC channel blocker Genistein. The brain slices (400 μm) were prepared as described in Example 5. Mice ([…] strain, 6-8 weeks old) were anaesthetized with pentobarbital and decapitated. The brain was removed and submerged in ice cold modified artificial cerebral spinal fluid (ACSF) solution containing 4 mM KCl, 5 mM MgCl2, 1 mM CaCl2, 26 mM NaHCO3, 10 mM glucose, 246 mM sucrose equilibrated with 95% CO2, 5% O2. Slices were cut with a VT1200 vibratome (Leica, Germany) and were allowed to recover in culture medium (75% Minimum Essential Medium (MEM), 25% heat-inactivated horse serum, 25 mM HEPES, 1 mM glutamine, 27.7 mM glucose) for at least 1 h in a tissue culture incubator (37° C., 5% CO2 in air). Hurtado de Mendoza et al. (2011) J Vis Exp. (51). (pii):2564).
For OGD-induced neuronal loss, the brain slices were placed in an anaerobic chamber (Coy Laboratory Products, USA; 100% N2) in OGD medium (75% MEM, 25% Hanks Buffered Salt Solution, 1 mM glutamine) Radley et a. (2012). Neurosci Lett. 506 (1):131-5). Controls included slices placed directly into culture medium in a tissue culture incubator (37° C., 5% CO2 in air). Slices were exposed to OGD for 0, 15 and 30 minutes, with or without 200 μM genistein (n=2 for each condition). […]

Assay [2] deals with T1, recombinant mouse TRPC3c channels (Mus musculus, UniProt Q9QZC1, DEL811-838).
T1 construct: expressed in transfected cells; host or cells: HEK293 cells, stably transfected (pIRES-DsRed2 vector)
T1 sequence (Q9QZC1 with tags, fused parts or gaps DEL811-838): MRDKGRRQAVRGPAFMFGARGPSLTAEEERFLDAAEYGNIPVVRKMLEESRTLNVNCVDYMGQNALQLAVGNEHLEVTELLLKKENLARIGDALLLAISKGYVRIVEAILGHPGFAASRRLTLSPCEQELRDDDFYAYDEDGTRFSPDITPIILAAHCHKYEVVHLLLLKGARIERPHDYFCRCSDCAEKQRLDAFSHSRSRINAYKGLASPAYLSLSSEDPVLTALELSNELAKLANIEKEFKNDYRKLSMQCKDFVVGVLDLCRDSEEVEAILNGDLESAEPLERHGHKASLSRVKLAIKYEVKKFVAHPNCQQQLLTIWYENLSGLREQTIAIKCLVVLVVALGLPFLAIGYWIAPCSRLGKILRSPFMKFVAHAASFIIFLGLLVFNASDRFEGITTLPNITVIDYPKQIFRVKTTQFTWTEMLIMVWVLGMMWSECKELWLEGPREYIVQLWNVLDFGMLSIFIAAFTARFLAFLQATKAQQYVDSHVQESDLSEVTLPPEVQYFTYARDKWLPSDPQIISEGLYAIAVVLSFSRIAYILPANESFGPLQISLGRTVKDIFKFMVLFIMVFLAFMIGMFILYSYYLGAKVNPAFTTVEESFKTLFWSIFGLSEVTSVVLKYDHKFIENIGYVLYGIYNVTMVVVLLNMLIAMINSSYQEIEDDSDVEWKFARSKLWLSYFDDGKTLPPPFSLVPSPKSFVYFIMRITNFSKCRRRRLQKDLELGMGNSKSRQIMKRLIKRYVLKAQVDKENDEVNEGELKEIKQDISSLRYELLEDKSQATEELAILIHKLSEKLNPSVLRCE
In words: Whole-cell patch clamp of CCh-activated current, HEK293 cells expressing TRPC3c. Format: cell-based. The following applies: TRPC3c+CCh (100 μM)+genistein 200 μM pre-incubation; Vh=−50 mV; n=7; CCh alone −809.4±36.9 pA. How it is done: For whole cell patch clamp recordings, HEK293 cells stably expressing recombinant TRPC3 ion channels were grown to 85-95% confluence on a coverslip coated with poly-D-lysine and collagen (both from Sigma-Aldrich, U.S.A.). Recording pipettes were made from borosilicate glass (GC120TF-10, Harvard Apparatus, U.K.). The pipette resistance was at 3-6 MΩ (PC-10, Narishige, Japan). The internal solution had the composition: 130 mM CsCl, 2 mM MgCl2, 10 mM EGTA, 0.3 mM ATP, 0.03 mM GTP, pH at 7.3 adjusted with CsOH. Cells on the coverslip were placed in a microchamber on an inverted microscope (Leica DMIL, Germany) and superfused with HEPES-buffered physiological salt solution (HPSS) containing 120 mM NaCl, 5.4 mM KCl, 2 mM CaCl2, 1.13 mM MgCl2, 10 mM glucose, 20 mM HEPES (pH 7.4) at room temperature.
Whole cell patch clamp recordings were made following a gigaseal, using an Axopatch 200 patch clamp amplifier (Molecular Devices, U.S.A.) controlled by software (pClamp 10.2, Molecular Devices, U.S.A.). Cell capacitance was cancelled and series resistance was compensated by ˜90%. […] Carbachol (used to activate TRPC3 channels via the endogenously expressed M3 AChR) was purchased from Sigma-Aldrich (U.S.A.). DHPG (—(S)-2-amino-2-(3,5-dihydroxyphenyl)acetic acid), a group I mGluR agonist (Schoepp et al. 1994), was purchased from Tocris Bioscience (U.K.). […]
Background: Patch clamp records ionic current or voltage across a cell membrane.

Take `O=c1c(-c2ccc(O)cc2)coc2cc(O)cc(O)c12` [genistein, 4′, 5,7-trihydroxyisoflavone]: in assay [1], the “propidium iodide fluorescence in granule cell layer and molecular layer after OGD” value was “reduced propidium iodide fluorescence”. In assay [1] (15 mins and 30 mins OGD, n=2 slices per condition), the “neuronal loss and oedema in the Purkinje cell layer after OGD” value is “provided protection from the neuronal loss and oedema in the PCL”. In addition, the “mean peak CCh-activated whole-cell inward current” value in assay [2] is recorded as −35.4±8.1 pA.
